Values of other authors in patent US11918653B2, “Triglyceride otic formulations and uses thereof” (DOMPÉ FARMACEUTICI S.P.A., priority 2017, dated 2024).
Values belong to the molecule of their own block, whether it stands above or below them.

Assays:
[1] = biological target: constitutively activated D136A mutant VP2 receptor (Homo sapiens, UniProt P30518, D136A)
[2] = test system: Meniere's disease symptoms; details: infusion into the scala tympani
[3] = after topical application
[4] = test system: mouse collagen-induced arthritis model; details: 30 mg/kg dose
[5] = test system: TNF-α production in the LPS-induced human PBMC cells; details: read-out: IC50 for inhibiting TNF-α production
[6] = test system: tinnitus; details: administered by IV
[7] = in vivo
[8] = test system: TNF-α production in the LPS-induced MonoMac-6 cells; details: read-out: IC50 for inhibiting TNF-α production
[9] = test system: TNF-α; details: LPS-challenged mice
[10] = test system: rat arthritis model; details: 30 mg/kg
[11] = biological target: T1, lymphotoxin (TNF-β) (Homo sapiens, UniProt P01374)
T1 sequence (P01374 35-205): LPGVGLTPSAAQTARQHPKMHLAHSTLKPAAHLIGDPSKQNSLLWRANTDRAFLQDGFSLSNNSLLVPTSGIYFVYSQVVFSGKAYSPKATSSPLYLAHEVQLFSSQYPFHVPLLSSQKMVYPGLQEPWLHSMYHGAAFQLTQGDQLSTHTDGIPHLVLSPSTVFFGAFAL

behaviour at D136A mutant VP2 receptor [1]: inverse agonist
Molecule: Cc1ccccc1C(=O)Nc1ccc(C(=O)N2CCCC(N(C)C)c3ccccc32)cc1.Cl (racemic) [OPC-31260, (±)-5-dimethylamino-1-(4-[2-methylbenzoylamino]benzoyl)-2,3,4,5-tetrahydro-1H-benzazepin hydrochloride]
Meniere's disease symptoms [2]: marked reduction of Meniere's disease symptoms

bioavailability [3]: less than 0.5%
Molecule: C=CC[C@@H]1/C=C(\C)C[C@H](C)C[C@H](OC)[C@H]2O[C@@](O)(C(=O)C(=O)N3CCCC[C@H]3C(=O)O[C@H](/C(C)=C/[C@@H]3CC[C@@H](O)[C@H](OC)C3)[C@H](C)[C@@H](O)CC1=O)[C@H](C)C[C@@H]2OC (relative stereo) [tacrolimus, [3S-[3R*[E(1S*,3S*,4S*)], 4S*,5R*,8S*,9E,12R*,14R*,15S*,16R*,18S*,19S*,26aR*]]-5,6,8,11,12,13,14,15,16,17,18,19,24,25,26,26a-hexadecahydro-5,19-dihydroxy-3-[2-(4-hydroxy-3-methoxycyclohexyl)-1-methylethenyl]-14,16-dimethoxy-4,10,12,18-tetramethyl-8-(2-propenyl)-15,19-epoxy-3H-pyrido[2,1-39c][1,4]oxaazacyclotricosine-1,7,20,21(4H,23H)-tetrone monohydrate]

Molecule: Cc1ccc2nc(NCCN)c3ncc(C)n3c2c1 [BMS-345541]
severity of disease [4]: significantly reduced the severity of disease

Molecule: CC[C@H](C)[C@H](NC(=O)[C@H](CC(C)C)[C@H](C(C)C)N(O)C=O)C(=O)Nc1ccccn1 [GW3333]
IC50 [5]: 970 nM

Molecule: CCN(CC)CC(=O)Nc1c(C)cccc1C [Lidocaine]
sufferers in whom noise associated with tinnitus is reduced or eliminated [6]: 60-80%

IC50 [8]: 34 nM
Molecule: CC(C)C[C@@H](C(=O)N[C@@H](CCCN/C(N)=N/[N+](=O)[O-])C(=O)Nc1nccs1)[C@H](C(C)C)N(O)C=O [Nitroarginine analog A]
oral activity [7]: lacks oral activity

Molecule: O=C(Nc1cc(Cl)cc2c1[nH]c1cnccc12)c1cccnc1 [PS-1145]
production of TNF-α [9]: reduces the production of TNF-α

Molecule: COc1cccc2nc(-c3cccs3)nc(NN3C(=O)C=C(C)C3=O)c12 [SPC-839]
paw edema [10]: reduces paw edema

Molecule: CCOc1ccc2c(c1)C1(CCC(OCCN3CCOCC3)CC1)C(=O)N2S(=O)(=O)c1ccc(C(=O)NC(C)(C)C)cc1OC.O=C(O)/C=C/C(=O)O (centres unmarked) [SR-1211463, 1-(4-(N-tert-butylcarbamoyl)-2-methoxybenzenesulfonyl)-5-ethoxy-3-spiro-(4-(2-morpholinoethoxy)cyclohexane)indol-2-one fumarate]
behaviour at D136A mutant VP2 receptor [1]: inverse agonist

Molecule: Adalimumab
binding or inactivation of lymphotoxin (TNF-β) [11]: does not bind or inactivate
patients developing injection site reactions (erythema and/or itching, hemorrhage, pain and/or swelling) (systemic administration): 20%

Molecule: etanercept
patients experiencing injection site reactions (systemically treated): over one-third of patients
